pIC50: −log10 of the molar value.

Assay [1] relates to T47D (PI3Kα-H1047R) cell line. Kind of assay: HTRF phospho-AKT(S473) cell assay in T47D cells. The assay is classed as cell-based, human. In short, it runs like this:
(§1)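 T47D: RPMI + 10% FBS + 0.2 units/mL insulin, top 5 μM. SKBR3: McCoy's 5A + 10% FBS, top 10 μM, 70 ng/ml PDGF-BB last 15 min. Both: 12-pt 1:3, 2 h, 37° C, max 0.5% DMSO; HTRF pAKT(S473); IC50.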
A general note: Time-resolved FRET reads energy transfer from a long-lived donor to a nearby acceptor.

Assay [2] concerns SKBR3 (PI3Kα-Wild Type) cell line. Nature of the assay: HTRF phospho-AKT(S473) cell assay in SKBR3 cells. The assay is classed as cell-based, human. An outline of the steps: as §1
The mark [3] stands for this setting: Homo sapiens; HTRF phospho-AKT(S473), T47D (PI3Kα-H1047R) cells, 2 hours compound incubation.
[4] abbreviates: Homo sapiens, SK-BR-3; HTRF phospho-AKT(S473), SKBR3 (PI3Kα-Wild Type) cells, 2 hours compound incubation, PDGF-BB stimulated.
Where [5] appears, read: Homo sapiens; T47D (PI3Kα-H1047R) cells, HTRF phospho-AKT(S473), 2 hours compound incubation.
Setting [6] is: Homo sapiens, SK-BR-3; SKBR3 (PI3Kα-Wild Type) cells, HTRF phospho-AKT(S473), 2 hours compound incubation, PDGF-BB stimulated.

In the case of `Cc1cc([C@@H](C)Nc2ccc(Cl)nc2C(=O)NS(C)(=O)=O)c2nc(N3CCC(c4ccc(F)cn4)C3)n(C)c(=O)c2c1` (stereo partly drawn) [Compound 679, 6-chloro-3-(((1R)-1-(2-(3-(5-fluoropyridin-2-yl)pyrrolidin-1-yl)-3,6-dimethyl-4-oxo-3,4-dihydroquinazolin-8-yl)ethyl)amino)-N-(methylsulfonyl) picolinamide], the pIC50 (commonly the negative decadic logarithm of the IC50, by convention in mol/L) in assay [1] (setting [3]) was 6.30 to 6.60; in assay [2] (setting [4]), 5.30 to 6.00.
As for `Cc1cc([C@@H](C)Nc2ccc(Cl)nc2C(=O)NS(C)(=O)=O)c2nc(N3CCC(c4nc(C(F)(F)F)n(C)n4)CC3)n(C)c(=O)c2c1` [Compound 458, (R)-6-chloro-3-((1-(3,6-dimethyl-2-(4-(1-methyl-5-(trifluoromethyl)-1H-1,2,4-triazol-3-yl)piperidin-1-yl)-4-oxo-3,4-dihydroquinazolin-8-yl)ethyl)amino)-N-(methylsulfonyl) picolinamide], the pIC50 in assay [1] (setting [3]) is 6.30 to 6.60; in assay [2] (setting [4]), not above 5.30.
With `Cc1cc([C@@H](C)Nc2ccc(Cl)nc2C(=O)NS(C)(=O)=O)c2nc(N3CC[C@H](Oc4ccnnc4)C3)n(C)c(=O)c2c1` [Compound 353, 6-chloro-3-(((R)-1-(3,6-dimethyl-4-oxo-2-((S)-3-(pyridazin-4-yloxy)pyrrolidin-1-yl)-3,4-dihydroquinazolin-8-yl)ethyl)amino)-N-(methylsulfonyl) picolinamide], the pIC50 was 6.30 to 6.60 in assay [1] (setting [5]) and 5.30 to 6.00 in assay [2] (setting [6]).
On to `Cc1cc([C@@H](C)Nc2ccc(Cl)nc2C(=O)NS(C)(=O)=O)c2nc(N3C[C@@H]4[C@H](C3)[C@H]4c3ccnn3C3CC3)n(C)c(=O)c2c1` [Compound 460, 6-chloro-3-(((R)-1-(2-((1R,5S,6R)-6-(1-cyclopropyl-1H-pyrazol-5-yl)-3-azabicyclo[3.1.0]hexan-3-yl)-3,6-dimethyl-4-oxo-3,4-dihydroquinazolin-8-yl)ethyl)amino)-N-(methylsulfonyl) picolinamide], for which the pIC50 in assay [1] (setting [3]) is more than 6.60; in assay [2] (setting [4]), 5.30 to 6.00.
Take `CC(=O)N1CCC(c2ccc(-c3nc4c([C@@H](C)Nc5ccc(Cl)nc5C(=O)NS(C)(=O)=O)cc(C)cc4c(=O)n3C)cc2F)CC1` [Compound 786, (R)-3-((1-(2-(4-(1-acetylpiperidin-4-yl)-3-fluorophenyl)-3,6-dimethyl-4-oxo-3,4-dihydroquinazolin-8-yl)ethyl)amino)-6-chloro-N-(methylsulfonyl) picolinamide]: the pIC50 in assay [1] (setting [3]) was more than 6.60; in assay [2] (setting [4]), 5.30 to 6.00.
Consider `Cc1cc([C@@H](C)Nc2ccc(Cl)nc2C(=O)NS(C)(=O)=O)c2nc(N3[C@@H]4CC[C@H]3C[C@@H](c3cnn(C)c3)C4)n(C)c(=O)c2c1` (racemic) [Compound 381, 6-chloro-3-(((R)-1-(3,6-dimethyl-2-((1RS,3RS,5SR)-3-(1-methyl-1H-pyrazol-4-yl)-8-azabicyclo[3.2.1]octan-8-yl)-4-oxo-3,4-dihydroquinazolin-8-yl)ethyl)amino)-N-(methylsulfonyl) picolinamide], for which the pIC50 in assay [1] (setting [5]) is more than 6.60; in assay [2] (setting [6]), 5.30 to 6.00.
Consider `COc1ccc(N2CCN(c3nc4c([C@@H](C)Nc5ccc(Cl)nc5C(=O)NS(C)(=O)=O)cc(C)cc4c(=O)n3C)CC2)cn1` [Compound 635, (R)-6-chloro-3-((1-(2-(4-(6-methoxypyridin-3-yl)piperazin-1-yl)-3,6-dimethyl-4-oxo-3,4-dihydroquinazolin-8-yl)ethyl)amino)-N-(methylsulfonyl) picolinamide], for which the pIC50 was 6.30 to 6.60 in assay [1] (setting [3]) and 5.30 to 6.00 in assay [2] (setting [4]).
For `COc1cc(N2CCN(c3nc4c([C@@H](C)Nc5ccc(Cl)nc5C(=O)NS(C)(=O)=O)cc(C)cc4c(=O)n3C)CC2)nc(C)n1` [Compound 718, (R)-6-chloro-3-((1-(2-(4-(6-methoxy-2-methylpyrimidin-4-yl)piperazin-1-yl)-3,6-dimethyl-4-oxo-3,4-dihydroquinazolin-8-yl)ethyl)amino)-N-(methylsulfonyl) picolinamide], in that order: 6.30 to 6.60 and not above 5.30.
Take `Cc1cc([C@@H](C)Nc2ccc(Cl)nc2C(=O)NS(C)(=O)=O)c2nc(N3CCC[C@H](c4cnn(C)c4)C3)n(C)c(=O)c2c1` (relative stereo) [Compound 194, 6-chloro-3-(((R)-1-(3,6-dimethyl-2-((R*)-3-(1-methyl-1H-pyrazol-4-yl)piperidin-1-yl)-4-oxo-3,4-dihydroquinazolin-8-yl)ethyl)amino)-N-(methylsulfonyl) picolinamide]: the figures for the negative-log IC50 (pIC50) in assay [1] (setting [5]) and in assay [2] (setting [6]) were more than 6.60 and 5.30 to 6.00, respectively.
For `Cc1cc([C@@H](C)Nc2ccc(Cl)nc2C(=O)NS(C)(=O)=O)c2nc(N3CCC(c4ncc(C)o4)CC3)n(C)c(=O)c2c1` [Compound 728, (R)-6-chloro-3-((1-(3,6-dimethyl-2-(4-(5-methyloxazol-2-yl)piperidin-1-yl)-4-oxo-3,4-dihydroquinazolin-8-yl)ethyl)amino)-N-(methylsulfonyl) picolinamide], the pIC50 in assay [1] (setting [3]) was 6.30 to 6.60; in assay [2] (setting [4]), 5.30 to 6.00.
Consider `Cc1cc([C@@H](C)Nc2ccc(Cl)nc2C(=O)NS(C)(=O)=O)c2nc(-c3ccc4nn(C(F)F)cc4c3)n(C)c(=O)c2c1` [Compound 836, (R)-6-chloro-3-((1-(2-(2-(difluoromethyl)-2H-indazol-5-yl)-3,6-dimethyl-4-oxo-3,4-dihydroquinazolin-8-yl)ethyl)amino)-N-(methylsulfonyl) picolinamide], for which the figures for the pIC50 in assay [1] (setting [3]) and in assay [2] (setting [4]) were more than 6.60 and 5.30 to 6.00, respectively.
In the case of `Cc1cc([C@@H](C)Nc2ccc(Cl)nc2C(=O)NS(C)(=O)=O)c2nc(N3CCC(c4cnc(C)cn4)CC3)n(C)c(=O)c2c1` [Compound 272, (R)-6-chloro-3-((1-(3,6-dimethyl-2-(4-(5-methylpyrazin-2-yl)piperidin-1-yl)-4-oxo-3,4-dihydroquinazolin-8-yl)ethyl)amino)-N-(methylsulfonyl) picolinamide], the values for the pIC50 in assay [1] (setting [5]) and in assay [2] (setting [6]) were more than 6.60 and 5.30 to 6.00, respectively.
Regarding `Cc1cc([C@@H](C)Nc2ccc(Cl)nc2C(=O)NS(C)(=O)=O)c2nc(-c3cnn(C)c3)n(C)c(=O)c2c1` [Compound 288, (R)-6-chloro-3-((1-(3,6-dimethyl-2-(1-methyl-1H-pyrazol-4-yl)-4-oxo-3,4-dihydroquinazolin-8-yl)ethyl)amino)-N-(methylsulfonyl) picolinamide], the pIC50 in assay [1] (setting [5]) was more than 6.60; in assay [2] (setting [6]), 5.30 to 6.00.
Turning to `Cc1cc([C@@H](C)Nc2ccc(Cl)nc2C(=O)NS(C)(=O)=O)c2nc(N3CCC(c4cccc5c4cnn5C)CC3)n(C)c(=O)c2c1` [Compound 678, (R)-6-chloro-3-((1-(3,6-dimethyl-2-(4-(1-methyl-1H-indazol-4-yl)piperidin-1-yl)-4-oxo-3,4-dihydroquinazolin-8-yl)ethyl)amino)-N-(methylsulfonyl) picolinamide], the pIC50 is 6.30 to 6.60 in assay [1] (setting [3]) and not above 5.30 in assay [2] (setting [4]).
With `Cc1cc([C@@H](C)Nc2ccc(Cl)nc2C(=O)NS(C)(=O)=O)c2nc(N3CCN(c4ccn(C)n4)[C@H](C)C3)n(C)c(=O)c2c1` [Compound 256, 6-chloro-3-(((R)-1-(3,6-dimethyl-2-((R)-3-methyl-4-(1-methyl-1H-pyrazol-3-yl)piperazin-1-yl)-4-oxo-3,4-dihydroquinazolin-8-yl)ethyl)amino)-N-(methylsulfonyl) picolinamide], the pIC50 in assay [1] (setting [5]) was more than 6.60; in assay [2] (setting [6]), 5.30 to 6.00.
Turning to `Cc1cc([C@@H](C)Nc2ccc(Cl)nc2C(=O)NS(C)(=O)=O)c2nc(N3CCC(c4nc(C)nn4C(F)F)CC3)n(C)c(=O)c2c1` [Compound 724, (R)-6-chloro-3-((1-(2-(4-(1-(difluoromethyl)-3-methyl-1H-1,2,4-triazol-5-yl)piperidin-1-yl)-3,6-dimethyl-4-oxo-3,4-dihydroquinazolin-8-yl)ethyl)amino)-N-(methylsulfonyl) picolinamide], the pIC50 was 6.30 to 6.60 in assay [1] (setting [3]) and 5.30 to 6.00 in assay [2] (setting [4]).
In the same order, the values of `CCn1c(N2Cc3cnn(CC(F)(F)F)c3C2)nc2c([C@@H](C)Nc3ccc(Cl)nc3C(=O)NS(C)(=O)=O)cc(C)cc2c1=O` [Compound 733, (R)-6-chloro-3-((1-(3-ethyl-6-methyl-4-oxo-2-(1-(2,2,2-trifluoroethyl)-4,6-dihydropyrrolo[3,4-c]pyrazol-5(1H)-yl)-3,4-dihydroquinazolin-8-yl)ethyl)amino)-N-(methylsulfonyl) picolinamide] are 6.00 to 6.30 and 5.30 to 6.00.
Consider `Cc1cc([C@@H](C)Nc2ccc(Cl)nc2C(=O)NS(C)(=O)=O)c2nc(N3C4CCC3CN(c3cnn(C)c3)C4)n(C)c(=O)c2c1` [Compound 269, 6-chloro-3-(((1R)-1-(3,6-dimethyl-2-(3-(1-methyl-1H-pyrazol-4-yl)-3,8-diazabicyclo[3.2.1]octan-8-yl)-4-oxo-3,4-dihydroquinazolin-8-yl)ethyl)amino)-N-(methylsulfonyl) picolinamide], for which the results for the negative logarithm of the IC50 (pIC50) in assay [1] (setting [5]) and in assay [2] (setting [6]) were more than 6.60 and 5.30 to 6.00, respectively.
As to `Cc1cnc(N2C[C@@H]3C[C@H]2CN3c2nc3c([C@@H](C)Nc4ccc(Cl)nc4C(=O)NS(C)(=O)=O)cc(C)cc3c(=O)n2C)nc1` [Compound 564, 6-chloro-3-(((R)-1-(3,6-dimethyl-2-((1S,4S)-5-(5-methylpyrimidin-2-yl)-2,5-diazabicyclo[2.2.1]heptan-2-yl)-4-oxo-3,4-dihydroquinazolin-8-yl)ethyl)amino)-N-(methylsulfonyl) picolinamide], the pIC50 in assay [1] (setting [3]) was 6.30 to 6.60; in assay [2] (setting [4]), not above 5.30.

Values taken from patent publication US12281122B1, “PI3K inhibitors” (Cogent Biosciences, Inc., priority 2023, dated 2025).
